Laboratory results from paper PMC3573960 (Molecular Neurodegeneration, 2012).

Columns and labels:
[1] = tested on: Aph1AL containing γ-secretase complexes; assay: Cell-free γ-secretase assay, Aβ1-40 and Aβ1-42 by AlphaLisa; assay type: biochemical, murine
From the text: DAPT was used as a reference positive control for the assay. For each assay condition, a 5-μL microsomal fraction, containing 1% CHAPSO (3-[(3-cholamidopropyl)dimethylammonio]-2-hydroxy-1-propanesulfonate) from murine embryonic fibroblasts (MEF) lacking the Aph-1A, Aph-1B, and Aph-1C genes [60] […] The other half of the reaction mixture was used to analyze the levels of Aβ1-40 and Aβ1-42 by AlphaLisa (Perkin Elmer, Waltham, MA).

Tg2576 mice = assay: Amorfix A4 assay of aggregated Aβ in Tg2576 mouse brain; assay type: in vivo; settings: 50 weeks
Experimental: Male Tg2576 and WT mice were both derived from crosses of male Tg2576 mice and female B6SJLF1 mice (Taconic) and were singly housed upon arrival. […] Some animals were euthanized as described above. For histological studies, a subset of mice were euthanized by CO2 asphyxiation and transcardially perfused with cold 0.9% NaCl. The right hemispheres were immersion fixed in fresh 4% paraformaldehyde in 0.1 M phosphate buffer, pH 7.4 for 1 h, transferred to a 15% sucrose cryoprotectant for 24 h at room temperature, and on the next day, frozen in isopentane chilled by dry ice for 1 min. The left cerebral hemisphere was cut into 2 pieces, weighed, and frozen.
The A4 assay (Amorfix Life Sciences, Toronto, Canada) was employed to quantify levels of aggregated Aβ in Tg2576 mouse brains. […] Aβ was detected by immunoassay following incubation at 37°C with europium-fluorescent beads coupled to the mouse monoclonal 4G10 antibody (N-terminal Aβ, aa 1–17) and magnetic beads coupled to the antibodies 1F8 (C-terminal Aβ, aa 3–40) and 2H12 (C-terminal Aβ, aa 3–42). […] The intensity of the europium fluorescent signal was measured using time resolved fluorescence on each sample in triplicate and was taken as being directly proportional to the concentration of aggregated Aβ in the sample. […]

O=C(O)[C@H](CC1CCC1)c1cc(Cl)c(OCC(F)(F)F)c(-c2ccc(C(F)(F)F)cc2)c1 [EVP-0015962, (R)-2-(5-chloro-6-(2,2,2-trifluoroethoxy)-4’-(trifluoromethyl)biphenyl-3-yl)-3-cyclobutylpropanoic acid]
levels of Aβ40 in the cell-free assay [1]: without affecting | reduction in aggregated Aβ (Tg2576 mice; 20 mg/kg/day): 19% | reduction in aggregated Aβ compared to the control diet group (Tg2576 mice; 60 mg/kg/day): 73%
